Laboratory results reported in ChEMBL document CHEMBL1148564, “Synthesis and interactions of 7-deoxy-, 10-deacetoxy, and 10-deacetoxy-7-deoxypaclitaxel with NCI/ADR-RES cancer cells and bovine brain microvessel endothelial cells” (Bioorg Med Chem Lett, 2006).

Columns and labels:
[1] = target: T1, Tubulin (Homo sapiens) (UniProt P68371+Q9H4B7+P0DPH7+P68366+Q13509+Q71U36+P04350+Q3ZCM7+P07437+P68363+Q9BQE3+Q6PEY2+Q13885+Q9BVA1+Q9BUF5); test: Antiproliferative activity against NCI/ADR-RES […] cancer cell line relative to paclitaxel; type: functional, cell-based
[2] = target: T1, Tubulin (Homo sapiens); test: Effect on tubulin polymerization by tubulin assembly assay relative to paclitaxel; type: protein-complex assay
[3] = tested on: MCF7; test: Antiproliferative activity against MCF7 breast cancer cell line relative to paclitaxel; type: functional, Homo sapiens

In the case of `CC(=O)O[C@@]12CO[C@@H]1CC[C@@]1(C)C(=O)CC3=C(C)[C@@H](OC(=O)[C@H](O)[C@@H](NC(=O)c4ccccc4)c4ccccc4)C[C@@](O)([C@@H](OC(=O)c4ccccc4)[C@H]21)C3(C)C`, the Ratio ED50 [1] is reported as 0.21, the Ratio ED50 [2] is reported as 2 and the “Ratio ED50” value [3] is reported as 9.

In the case of `CC(=O)O[C@H]1C(=O)[C@]2(C)CC[C@H]3OC[C@@]3(OC(C)=O)[C@H]2[C@H](OC(=O)c2ccccc2)[C@]2(O)C[C@H](OC(=O)[C@H](O)[C@@H](NC(=O)c3ccccc3)c3ccccc3)C(C)=C1C2(C)C`, the Ratio ED50 [1] is reported as 1, the Ratio ED50 [2] is reported as 1.4 and the “Ratio ED50” value [3] is reported as 30.

`CC(=O)O[C@@]12CO[C@@H]1C[C@H](O)[C@@]1(C)C(=O)CC3=C(C)[C@@H](OC(=O)[C@H](O)[C@@H](NC(=O)c4ccccc4)c4ccccc4)C[C@@](O)([C@@H](OC(=O)c4ccccc4)[C@H]21)C3(C)C` was tested, and the Ratio ED50 [1] was 0.79, the Ratio ED50 [2] was 2.2 and the “Ratio ED50” value [3] was 0.87.
